Reference: patent US11358939B2, “1,4-benzodiazepin-2-one derivatives and use thereof” (priority 2017, dated 2022)

Key:
[1] = biological target: peripheral benzodiazepine receptors (PBR) (Homo sapiens, UniProt P30536); experiment: Affinity to peripheral benzodiazepine receptors; format: binding; conditions: 1×10^−6 mol/L
Description: (§1) Data on the affinity of 3-alcoxy-1,3-dihydro-2H-benzo[e][1,4]diazepin-2-ones (Ia) to central and peripheral benzodiazepine receptors is presented in Table 3.

[2] = system: central benzodiazepine receptors (CBR); experiment: Affinity to central benzodiazepine receptors, competitive displacement of [3H]-flumazenil (radioreceptor method); format: binding; conditions: 1×10^−6 mol/L
Description: Affinity of the compounds to central benzodiazepine receptors (CBR) was studied using radioreceptor method of competitive displacement of radioligant [^3H]-flumazenil (Ro 15-1788) from its specific binding sites at the receptor. Ligand displacement were performed in 1×10^−6 mol/L concentration.
as §1

[3] = system: writhes induced by intraperitoneal acetic acid; experiment: Analgesic activity, acetic acid-induced writhing test (peripheral pain model); format: in vivo; conditions: 1 mg/kg intraperitoneally, 40 min before 0.75% acetic acid
Description: Assessment of analgesic activity was performed in a model of peripheral pain based on chemical pain induced by intraperitoneal administration of acetic acid, leading to involuntary contractions of abdominal muscles, termed “writhes”, accompanied by hind leg extension and spine arching. The writhes were induced by 0.75% solution of acetic acid, which was administered intraperitoneally 40 min after intraperitoneal administration of test compounds in 0.001-5 mg/kg dose range. […] Analgesic activity was assessed by the ability of the compounds to reduce the number of writhes in test group compared to control group, and indicated as percentage using the following formula: AA=(Wc−Wt/Wc)×100%,
where AA—analgesic activity in %;
Wc—average number of writhes in control group;
Wt—average number of writhes in test group
Test compounds were studied in comparison with the reference drug sodium diclofenac in 10 mg/kg dose. ED50 was calculated using Prozorovsky method.

[4] = system: number of drinking actions despite electric shock; experiment: Anxiolytic activity, conflict situation model (drinking versus electric shock); format: in vivo; conditions: number of drinking actions despite electric shock, 30 min before test
Description: Anxiolytic activity was assessed in a model of conflict situation based on the conflict of two reflexes (drinking and defensive) when drinking water from a water fountain. Anxiolytic activity was assessed by the number of drinking actions despite electric shock.
(§2) Diazepam drug was used as the reference drug. All test compounds and the reference drug diazepam were administered in a suspension with Tween-80 in 5 mg/kg dose 30 min before the start of experiments.

[5] = system: general movement activity of animals; experiment: General movement activity, open field test; format: in vivo; conditions: for General movement activity (5 mg/kg): open field 3 min, sum of rearings, transitions, explored holes, 30 min before test; for Sedative properties (words, from general movement activity versus control): 5 mg/kg
Description: General movement activity was assessed in an open field test. While the animals were in the open field (3 min), the number of rearings (vertical movement activity), transitions between squares (horizontal movement activity) and the number of explored holes (exploratory activity) were registered. The sum of these values is general movement activity.
as §2

Sequence of peripheral benzodiazepine receptors (PBR) (P30536 whole entry, species assumed): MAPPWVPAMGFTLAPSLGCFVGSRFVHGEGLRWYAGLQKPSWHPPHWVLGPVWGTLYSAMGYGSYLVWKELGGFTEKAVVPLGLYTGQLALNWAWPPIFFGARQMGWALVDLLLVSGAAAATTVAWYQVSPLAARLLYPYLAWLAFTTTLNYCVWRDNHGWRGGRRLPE

## CCCOC1N=C(c2ccccc2F)c2cc(Br)ccc2NC1=O (stereo not shown) [Compound 2]
[1]
  Affinity PBR, %: 5%
[2]
  Affinity CBR, %: 85%
[3]; compounds Ia
  Writhing inhibition, % of control in 1 mg/kg dose: 55%

## CCCCOC1N=C(c2ccccc2F)c2cc(Br)ccc2NC1=O (stereo not shown) [Compound 3]
[1]
  Affinity PBR, %: 8%
[2]
  Affinity CBR, %: 88%
[3]; compounds Ia
  Writhing inhibition, % of control in 1 mg/kg dose: 45%

## O=C1Nc2ccc(Br)cc2C(c2ccccc2F)=NC1OCCO (stereo not shown) [Compound 4]
[1]
  Affinity PBR, %: 8%
[2]
  Affinity CBR, %: 91%
[3]; compounds Ia
  Writhing inhibition, % of control in 1 mg/kg dose: 56%

## COCCOC1N=C(c2ccccc2F)c2cc(Br)ccc2NC1=O (stereo not shown) [Compound 5]
[1]
  Affinity PBR, %: 10%
[2]
  Affinity CBR, %: 90%
[3]; compounds Ia
  Writhing inhibition, % of control in 1 mg/kg dose: 52%

## O=C1Nc2ccc(Br)cc2C(c2ccccc2F)=NC1OCC1CC1 (stereo not shown) [Compound 6]
[1]
  Affinity PBR, %: 15%
[2]
  Affinity CBR, %: 89%
[3]; compounds Ia
  Writhing inhibition, % of control in 1 mg/kg dose: 55%

## COCCOC1N=C(c2ccccc2)c2cc(Cl)ccc2NC1=O (stereo not shown) [Compound 16]
[1]
  Affinity PBR, %: 15%
[2]
  Affinity CBR, %: 88%
[3]; compounds Ia
  Writhing inhibition, % of control in 1 mg/kg dose: 55%

## O=C1Nc2ccc(Cl)cc2C(c2ccccc2)=NC1OCC1CC1 (stereo not shown) [Compound 17]
[1]
  Affinity PBR, %: 14%
[2]
  Affinity CBR, %: 79%
[3]; compounds Ia
  Writhing inhibition, % of control in 1 mg/kg dose: 54%

## CCOC1N=C(c2ccccc2)c2cc(OC(F)(F)F)ccc2NC1=O (stereo not shown) [Compound 27]
[1]
  Affinity PBR, %: 16%
[2]
  Affinity CBR, %: 56%
[3]; compounds Ia
  Writhing inhibition, % of control in 1 mg/kg dose: 55%

## CCCOC1N=C(c2ccccc2)c2cc(OC(F)(F)F)ccc2NC1=O (stereo not shown) [Compound 28]
[1]
  Affinity PBR, %: 18%
[2]
  Affinity CBR, %: 60%
[3]; compounds Ia
  Writhing inhibition, % of control in 1 mg/kg dose: 60%

## CCCCOC1N=C(c2ccccc2)c2cc(OC(F)(F)F)ccc2NC1=O (stereo not shown) [Compound 29]
[1]
  Affinity PBR, %: 15%
[2]
  Affinity CBR, %: 61%
[3]; compounds Ia
  Writhing inhibition, % of control in 1 mg/kg dose: 56%

## O=C1Nc2ccc(OC(F)(F)F)cc2C(c2ccccc2)=NC1OCCO (stereo not shown) [Compound 30]
[1]
  Affinity PBR, %: 16%
[2]
  Affinity CBR, %: 65%
[3]; compounds Ia
  Writhing inhibition, % of control in 1 mg/kg dose: 50%

## CCOC1N=C(c2ccccc2Cl)c2cc([N+](=O)[O-])ccc2NC1=O (stereo not shown) [Compound 53]
[1]
  Affinity PBR, %: 15%
[2]
  Affinity CBR, %: 85%

## CCCOC1N=C(c2ccccc2Cl)c2cc([N+](=O)[O-])ccc2NC1=O (stereo not shown) [Compound 54]
[1]
  Affinity PBR, %: 16%
[2]
  Affinity CBR, %: 88%

## CCCCOC1N=C(c2ccccc2Cl)c2cc([N+](=O)[O-])ccc2NC1=O (stereo not shown) [Compound 55]
[1]
  Affinity PBR, %: 19%
[2]
  Affinity CBR, %: 87%

## COC(=O)CN1C(=O)C(Nc2cccc([N+](=O)[O-])c2)N=C(c2ccccc2)c2cc([N+](=O)[O-])ccc21 (stereo not shown) [Compound 282]
[4]
  Anxiolytic activity assessed using conflict situation method (5 mg/kg): 44.7 ± 3.9
[5]
  General movement activity (5 mg/kg): 19.0 ± 2.4
[3]; compounds Ib
  Writhing inhibition, % of control in 1 mg/kg dose: 59%

## COC(=O)CN1C(=O)C(Nc2ccc([N+](=O)[O-])cc2)N=C(c2ccccc2)c2cc([N+](=O)[O-])ccc21 (stereo not shown) [Compound 283]
[4]
  Anxiolytic activity assessed using conflict situation method (5 mg/kg): 45.1 ± 2.6
[5]
  General movement activity (5 mg/kg): 22.0 ± 2.0
[3]; compounds Ib
  Writhing inhibition, % of control in 1 mg/kg dose: 54%

## COC(=O)CN1C(=O)C(Nc2ccccc2F)N=C(c2ccccc2Cl)c2cc([N+](=O)[O-])ccc21 (stereo not shown) [Compound 317]
[4]
  Anxiolytic activity assessed using conflict situation method (5 mg/kg): 33.4 ± 3.2
[5]
  Sedative properties (words, from general movement activity versus control): don't have sedative properties
  General movement activity (5 mg/kg): 47.0 ± 3.7
[3]; compounds Ib
  Writhing inhibition, % of control in 1 mg/kg dose: 63%

## COC(=O)CN1C(=O)C(Nc2cccc(F)c2)N=C(c2ccccc2Cl)c2cc([N+](=O)[O-])ccc21 (stereo not shown) [Compound 318]
[4]
  Anxiolytic activity assessed using conflict situation method (5 mg/kg): 19.2 ± 3.4
[5]
  General movement activity (5 mg/kg): 28.5 ± 2.3
[3]; compounds Ib
  Writhing inhibition, % of control in 1 mg/kg dose: 65%

## COC(=O)CN1C(=O)C(Nc2ccc(F)cc2)N=C(c2ccccc2Cl)c2cc([N+](=O)[O-])ccc21 (stereo not shown) [Compound 319]
[4]
  Anxiolytic activity assessed using conflict situation method (5 mg/kg): 18.1 ± 2.2
[5]
  General movement activity (5 mg/kg): 27.2 ± 2.1
[3]; compounds Ib
  Writhing inhibition, % of control in 1 mg/kg dose: 61%

## COC(=O)CN1C(=O)C(Nc2ccccc2Br)N=C(c2ccccc2Cl)c2cc([N+](=O)[O-])ccc21 (stereo not shown) [Compound 326]
[4]
  Anxiolytic activity assessed using conflict situation method (5 mg/kg): 45.1 ± 2.6
[5]
  General movement activity (5 mg/kg): 22.0 ± 2.0
[3]; compounds Ib
  Writhing inhibition, % of control in 1 mg/kg dose: 62%

## COC(=O)CN1C(=O)C(Nc2cccc(Br)c2)N=C(c2ccccc2Cl)c2cc([N+](=O)[O-])ccc21 (stereo not shown) [Compound 327]
[4]
  Anxiolytic activity assessed using conflict situation method (5 mg/kg): 43.4 ± 3.2
[5]
  Sedative properties (words, from general movement activity versus control): don't have sedative properties
  General movement activity (5 mg/kg): 45.0 ± 3.7
[3]; compounds Ib
  Writhing inhibition, % of control in 1 mg/kg dose: 70%

## COC(=O)CN1C(=O)C(Nc2ccc(Br)cc2)N=C(c2ccccc2Cl)c2cc([N+](=O)[O-])ccc21 (stereo not shown) [Compound 328]
[4]
  Anxiolytic activity assessed using conflict situation method (5 mg/kg): 23.2 ± 3.4
[5]
  General movement activity (5 mg/kg): 24.5 ± 2.3
[3]; compounds Ib
  Writhing inhibition, % of control in 1 mg/kg dose: 69%

## COC(=O)CN1C(=O)C(Nc2ccccc2Cl)N=C(c2ccccc2F)c2cc([N+](=O)[O-])ccc21 (stereo not shown) [Compound 362]
[4]
  Anxiolytic activity assessed using conflict situation method (5 mg/kg): 35.1 ± 3.5
[5]
  General movement activity (5 mg/kg): 29.2 ± 2.3
[3]; compounds Ib
  Writhing inhibition, % of control in 1 mg/kg dose: 65%

## COC(=O)CN1C(=O)C(Nc2cccc(Cl)c2)N=C(c2ccccc2F)c2cc([N+](=O)[O-])ccc21 (stereo not shown) [Compound 363]
[4]
  Anxiolytic activity assessed using conflict situation method (5 mg/kg): 46.4 ± 4.2
[5]
  Sedative properties (words, from general movement activity versus control): don't have sedative properties
  General movement activity (5 mg/kg): 41.0 ± 3.9
[3]; compounds Ib
  Writhing inhibition, % of control in 1 mg/kg dose: 70%

## COC(=O)CN1C(=O)C(Nc2ccc(Cl)cc2)N=C(c2ccccc2F)c2cc([N+](=O)[O-])ccc21 (stereo not shown) [Compound 364]
[4]
  Anxiolytic activity assessed using conflict situation method (5 mg/kg): 26.2 ± 3.4
[5]
  General movement activity (5 mg/kg): 34.5 ± 3.3
[3]; compounds Ib
  Writhing inhibition, % of control in 1 mg/kg dose: 64%

## COC(=O)CN1C(=O)C(Nc2ccccc2C(F)(F)F)N=C(c2ccccc2F)c2cc([N+](=O)[O-])ccc21 (stereo not shown) [Compound 398]
[4]
  Anxiolytic activity assessed using conflict situation method (5 mg/kg): 33.1 ± 3.2
[5]
  General movement activity (5 mg/kg): 28.2 ± 3.3
[3]; compounds Ib
  Writhing inhibition, % of control in 1 mg/kg dose: 68%

## COC(=O)CN1C(=O)C(Nc2cccc(C(F)(F)F)c2)N=C(c2ccccc2F)c2cc([N+](=O)[O-])ccc21 (stereo not shown) [Compound 399]
[4]
  Anxiolytic activity assessed using conflict situation method (5 mg/kg): 44.4 ± 4.3
[5]
  Sedative properties (words, from general movement activity versus control): don't have sedative properties
  General movement activity (5 mg/kg): 41.8 ± 4.3
[3]; compounds Ib
  Writhing inhibition, % of control in 1 mg/kg dose: 70%

## COC(=O)CN1C(=O)C(Nc2ccc(C(F)(F)F)cc2)N=C(c2ccccc2F)c2cc([N+](=O)[O-])ccc21 (stereo not shown) [Compound 400]
[4]
  Anxiolytic activity assessed using conflict situation method (5 mg/kg): 32.2 ± 3.3
[5]
  General movement activity (5 mg/kg): 36.5 ± 3.3
[3]; compounds Ib
  Writhing inhibition, % of control in 1 mg/kg dose: 60%
